Each structure is given as a SMILES string.

The values below come from US10479784B2, “Substituted pyrazin-2-amines as inhibitors of ATR kinase” (Vertex Pharmaceuticals Incorporated, priority 2008, dated 2019).

In the experiment the target is full-length ATR (Homo sapiens (Human), UniProt Q13535). Description: ATR Inhibition Assay (radioactive-phosphate incorporation). The class given is biochemical. The settings on record: read-out: ATR Ki. The procedure, abridged:
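Ki(app) was derived by non-linear regression of background-corrected initial rates of 33P incorporation into an 800 μM target peptide, read by phosphocellulose filter scintillation counting. Reaction conditions: 5 nM full-length ATR, 10 μM [γ-33P]ATP, pH 7.5 Tris buffer with MgCl2 and DTT, 25 °C, 10-min preincubation, 24 h run.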

Sequence of full-length ATR (Q13535 whole entry): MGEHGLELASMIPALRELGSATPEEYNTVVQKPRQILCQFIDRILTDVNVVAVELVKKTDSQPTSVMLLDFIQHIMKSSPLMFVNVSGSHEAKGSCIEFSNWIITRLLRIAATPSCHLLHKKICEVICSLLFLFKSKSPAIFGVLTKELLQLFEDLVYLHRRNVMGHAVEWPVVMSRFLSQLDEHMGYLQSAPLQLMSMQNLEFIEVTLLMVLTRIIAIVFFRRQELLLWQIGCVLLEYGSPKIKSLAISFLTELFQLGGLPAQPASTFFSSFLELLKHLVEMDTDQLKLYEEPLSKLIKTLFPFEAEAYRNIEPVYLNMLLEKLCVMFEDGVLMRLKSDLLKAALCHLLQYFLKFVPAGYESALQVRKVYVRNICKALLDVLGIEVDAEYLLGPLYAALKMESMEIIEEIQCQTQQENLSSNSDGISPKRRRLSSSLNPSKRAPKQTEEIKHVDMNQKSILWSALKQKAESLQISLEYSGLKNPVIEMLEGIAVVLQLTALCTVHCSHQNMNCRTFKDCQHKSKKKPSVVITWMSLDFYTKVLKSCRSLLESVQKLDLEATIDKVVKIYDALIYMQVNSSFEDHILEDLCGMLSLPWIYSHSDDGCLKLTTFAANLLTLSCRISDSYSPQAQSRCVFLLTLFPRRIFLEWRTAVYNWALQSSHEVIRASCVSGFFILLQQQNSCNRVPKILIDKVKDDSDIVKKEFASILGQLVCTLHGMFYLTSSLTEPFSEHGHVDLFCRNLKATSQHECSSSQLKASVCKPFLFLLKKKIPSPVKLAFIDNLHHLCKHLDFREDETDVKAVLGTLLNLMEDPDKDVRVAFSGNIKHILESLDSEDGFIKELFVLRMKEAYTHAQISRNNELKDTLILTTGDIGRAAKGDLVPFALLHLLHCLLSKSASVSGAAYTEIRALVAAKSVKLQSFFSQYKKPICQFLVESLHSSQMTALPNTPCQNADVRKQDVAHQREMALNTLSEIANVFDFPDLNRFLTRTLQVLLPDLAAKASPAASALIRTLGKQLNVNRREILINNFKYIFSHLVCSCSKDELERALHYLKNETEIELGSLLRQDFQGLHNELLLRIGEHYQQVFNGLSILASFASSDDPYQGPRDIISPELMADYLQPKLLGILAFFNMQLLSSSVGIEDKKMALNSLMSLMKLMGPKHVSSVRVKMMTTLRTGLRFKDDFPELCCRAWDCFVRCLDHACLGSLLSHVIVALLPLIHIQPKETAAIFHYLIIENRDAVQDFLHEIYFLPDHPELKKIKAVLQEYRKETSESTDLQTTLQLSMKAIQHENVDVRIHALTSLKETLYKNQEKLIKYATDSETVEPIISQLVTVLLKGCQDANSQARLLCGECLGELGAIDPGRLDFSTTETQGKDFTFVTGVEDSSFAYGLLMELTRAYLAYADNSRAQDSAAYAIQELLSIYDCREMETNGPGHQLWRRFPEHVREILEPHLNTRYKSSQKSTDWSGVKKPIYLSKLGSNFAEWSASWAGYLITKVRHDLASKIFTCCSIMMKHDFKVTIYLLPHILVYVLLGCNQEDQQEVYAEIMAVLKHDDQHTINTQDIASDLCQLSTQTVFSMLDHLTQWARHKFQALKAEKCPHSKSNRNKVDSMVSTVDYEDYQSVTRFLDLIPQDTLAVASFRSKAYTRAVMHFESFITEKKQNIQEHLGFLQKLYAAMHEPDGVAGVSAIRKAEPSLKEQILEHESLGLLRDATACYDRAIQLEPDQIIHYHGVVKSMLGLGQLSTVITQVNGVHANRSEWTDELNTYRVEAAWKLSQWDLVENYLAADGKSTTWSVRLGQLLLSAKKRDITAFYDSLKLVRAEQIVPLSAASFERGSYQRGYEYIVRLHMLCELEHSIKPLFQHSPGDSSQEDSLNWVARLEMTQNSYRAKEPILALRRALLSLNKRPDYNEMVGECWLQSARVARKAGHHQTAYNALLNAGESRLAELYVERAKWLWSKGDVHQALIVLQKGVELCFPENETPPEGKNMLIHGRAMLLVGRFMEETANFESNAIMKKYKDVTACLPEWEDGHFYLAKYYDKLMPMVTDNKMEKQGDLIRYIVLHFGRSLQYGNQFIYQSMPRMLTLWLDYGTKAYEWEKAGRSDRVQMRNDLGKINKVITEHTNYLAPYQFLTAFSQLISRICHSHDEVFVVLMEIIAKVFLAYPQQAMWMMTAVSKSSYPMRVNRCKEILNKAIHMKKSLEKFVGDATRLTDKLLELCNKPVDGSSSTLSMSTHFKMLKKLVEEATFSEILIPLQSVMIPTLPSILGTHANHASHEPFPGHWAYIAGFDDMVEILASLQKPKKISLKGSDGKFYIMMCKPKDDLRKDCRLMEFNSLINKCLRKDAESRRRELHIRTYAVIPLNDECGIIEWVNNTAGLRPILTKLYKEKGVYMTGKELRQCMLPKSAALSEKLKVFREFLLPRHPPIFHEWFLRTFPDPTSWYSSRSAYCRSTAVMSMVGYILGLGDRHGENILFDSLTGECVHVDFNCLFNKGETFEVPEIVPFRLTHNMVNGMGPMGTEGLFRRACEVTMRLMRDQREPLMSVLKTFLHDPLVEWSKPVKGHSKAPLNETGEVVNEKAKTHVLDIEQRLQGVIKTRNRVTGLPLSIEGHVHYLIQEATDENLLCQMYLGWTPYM

Turning to `CN(C)C(=O)c1ccc(-c2cnc(N)c(-c3nnc(-c4ccccc4OCCCO)o3)n2)cc1` [IA-284, 4-[5-amino-6-[5-[2-(3-hydroxypropoxy)phenyl]-1,3,4-oxadiazol-2-yl]pyrazin-2-yl]-N,N-dimethyl-benzamide], the Ki was at most 10 nM.

Consider `CC(C)S(=O)(=O)c1ccc(-c2cnc(N)c(-c3nnc(-c4ccc(C5CCCN5)cc4)o3)n2)cc1` (centres unmarked) [IA-102, 5-(4-isopropylsulfonylphenyl)-3-[5-(4-pyrrolidin-2-ylphenyl)-1,3,4-oxadiazol-2-yl]pyrazin-2-amine], for which the Ki is at most 10 nM.

Turning to `Cc1ccc2nc(-c3nc(-c4ccc(C(=O)N5CCNCC5)cc4)cnc3N)[nH]c2c1` [Compound I-149, (4-(5-amino-6-(6-methyl-1H-benzo[d]imidazol-2-yl)pyrazin-2-yl)phenyl)(piperazin-1-yl)methanone], the Ki lay within 10 to 100 nM.

`CN1CCN(C(=O)c2cccc(-c3cnc(N)c(C(=O)Nc4ccccc4)n3)c2)CC1` [Compound I-59, 3-amino-6-(3-(4-methylpiperazine-1-carbonyl)phenyl)-N-phenylpyrazine-2-carboxamide]: the Ki was in the range of 100 to 5000 nM.

Regarding `CN(C)C(=O)c1ccc(-c2cnc(N)c(-c3nnc(-c4sccc4C#N)o3)n2)cc1` [IA-189, 4-[5-amino-6-[5-(3-cyano-2-thienyl)-1,3,4-oxadiazol-2-yl]pyrazin-2-yl]-N,N-dimethyl-benzamide], the Ki was 10 to 100 nM.

For `CNCc1ccc(-c2nnc(-c3nc(-c4ccc(S(=O)(=O)CCCO)cc4)cnc3N)o2)cc1` [IA-301, 3-[4-[5-amino-6-[5-[4-(methylaminomethyl)phenyl]-1,3,4-oxadiazol-2-yl]pyrazin-2-yl]phenyl]sulfonylpropan-1-ol], the inhibition constant Ki is at most 10 nM.

`COc1cc(-c2cnc(N)c(C(=O)Nc3ccccc3)n2)ccn1` [Compound I-38, 3-amino-6-(2-methoxypyridin-4-yl)-N-phenylpyrazine-2-carboxamide]: the Ki was in the range of 10 to 100 nM.

Turning to `Nc1ncc(-c2ccc(C(=O)N3CCCN(C=O)CC3)cc2)nc1-c1nnc(-c2ccccc2)o1` [IA-29], the Ki is at most 10 nM.

Consider `CN(C)CCS(=O)(=O)c1ccc(-c2cnc(N)c(-c3nnc(-c4ccccc4)o3)n2)cc1` [IA-169, 5-[4-(2-dimethylaminoethylsulfonyl)phenyl]-3-(5-phenyl-1,3,4-oxadiazol-2-yl)pyrazin-2-amine], for which the Ki was at most 10 nM.

With `Nc1ncc(-c2ccc(C(=O)NCCN3CCCC3)cc2)nc1-c1nc2ccccc2[nH]1` [Compound I-152, 4-(5-amino-6-(1H-benzo[d]imidazol-2-yl)pyrazin-2-yl)-N-(2-(pyrrolidin-1-yl)ethyl)benzamide], the Ki was 10 to 100 nM.

`CN(C)C(=O)c1ccc(-c2cnc(N)c(-c3nnc(-c4ccc(CNC(=O)OC(C)(C)C)cc4)o3)n2)cc1` [IA-162, tert-butyl N-[[4-[5-[3-amino-6-[4-(dimethylcarbamoyl)phenyl]pyrazin-2-yl]-1,3,4-oxadiazol-2-yl]phenyl]methyl]carbamate]: the Ki is 10 to 100 nM.

Turning to `CC(N)C(=O)Nc1nnc(-c2nc(-c3ccc(S(=O)(=O)C(C)C)cc3)cnc2N)o1` (centres unmarked) [IA-272, 2-amino-N-[5-[3-amino-6-(4-isopropylsulfonylphenyl)pyrazin-2-yl]-1,3,4-oxadiazol-2-yl]propanamide], the inhibition constant Ki was in the range of 100 to 5000 nM.

For `CNCc1ccc(-c2nnc(-c3nc(-c4ccc(S(=O)(=O)C5CCOC5)cc4)cnc3N)o2)cc1` (centres unmarked) [IA-302, 3-[5-[4-(methylaminomethyl)phenyl]-1,3,4-oxadiazol-2-yl]-5-(4-tetrahydrofuran-3-ylsulfonylphenyl)pyrazin-2-amine], the inhibitory constant (Ki) is at most 10 nM.

`COc1ccc(-c2nnc(-c3nc(-c4ccc(C(=O)N(C)C)cc4)cnc3N)o2)cc1` [IA-157, 4-[5-amino-6-[5-(4-methoxyphenyl)-1,3,4-oxadiazol-2-yl]pyrazin-2-yl]-N,N-dimethyl-benzamide]: the inhibitory constant (Ki) was in the range of 10 to 100 nM.

For the compound `CC(C)(C)S(=O)(=O)c1ccc(-c2cnc(N)c(-c3nnc(-c4ccccc4)o3)n2)cc1` [IA-280, 5-(4-tert-butylsulfonylphenyl)-3-(5-phenyl-1,3,4-oxadiazol-2-yl)pyrazin-2-amine], the Ki was at most 10 nM.

`CC(C)S(=O)(=O)c1ccc(-c2cnc(N)c(-c3nnc(-c4ccc(C5CCCN5)s4)o3)n2)cc1` (centres unmarked) [IA-147, 5-(4-isopropylsulfonylphenyl)-3-[5-(5-pyrrolidin-2-yl-2-thienyl)-1,3,4-oxadiazol-2-yl]pyrazin-2-amine]: the Ki was at most 10 nM.

As for `CC(=O)c1ccc(-c2cnc(N)c(C(=O)Nc3ccccc3)n2)cc1` [Compound I-17, 6-(4-acetylphenyl)-3-amino-N-phenylpyrazine-2-carboxamide], the Ki lay in the range of 100 to 5000 nM.

Regarding `Nc1ncc(-c2cccc(C(=O)N3CCOCC3)c2)nc1C(=O)Nc1ccc(N2CCCC2)cc1` [Compound I-26, 3-amino-6-(3-(morpholine-4-carbonyl)phenyl)-N-(4-(pyrrolidin-1-yl)phenyl)pyrazine-2-carboxamide], the Ki was 100 to 5000 nM.

Consider `CNCc1ccc(-c2nnc(-c3nc(-c4ccc(S(=O)(=O)C(C)C)cc4C#N)cnc3N)o2)cc1` [IA-331, 2-[5-amino-6-[5-[4-(methylaminomethyl)phenyl]-1,3,4-oxadiazol-2-yl]pyrazin-2-yl]-5-isopropylsulfonyl-benzonitrile], for which the Ki is at most 10 nM.

As for `Nc1ncc(-c2ccc(C(=O)O)cc2)nc1C(=O)Nc1ccccc1` [Compound I-7, 4-(5-amino-6-(phenylcarbamoyl)pyrazin-2-yl)benzoic acid], the inhibition constant (Ki) was 10 to 100 nM.

As for `Nc1ncc(-c2ccc(C(=O)N3CCCNCC3)c(F)c2)nc1-c1nnc(-c2ccccc2)o1` [IA-6], the inhibition constant (Ki) is at most 10 nM.

Take `CN(C)CCN(C)C(=O)c1ccc(-c2cnc(N)c(C(=O)Nc3ccccc3)n2)cc1` [Compound I-68, 3-amino-6-(4-((2-(dimethylamino)ethyl)(methyl)carbamoyl)phenyl)-N-phenylpyrazine-2-carboxamide]: the inhibition constant (Ki) was 10 to 100 nM.

As to `CC(C)S(=O)(=O)c1ccc(-c2cnc(N)c(-c3nnc(-c4ccc(N)cc4)o3)n2)cc1` [IA-201, 3-[5-(4-aminophenyl)-1,3,4-oxadiazol-2-yl]-5-(4-isopropylsulfonylphenyl)pyrazin-2-amine], the Ki is at most 10 nM.

For `CC(C)S(=O)(=O)c1ccc(-c2cnc(N)c(-c3nnc(-c4ccccc4O)o3)n2)cc1` [IA-235, 2-[5-[3-amino-6-(4-isopropylsulfonylphenyl)pyrazin-2-yl]-1,3,4-oxadiazol-2-yl]phenol], the Ki was at most 10 nM.

With `N#CCCN1CCN(C(=O)c2cccc(-c3cnc(N)c(C(=O)Nc4ccccc4)n3)c2)CC1` [Compound I-58, 3-amino-6-(3-(4-(2-cyanoethyl)piperazine-1-carbonyl)phenyl)-N-phenylpyrazine-2-carboxamide], the inhibitory constant (Ki) lay in the range of 100 to 5000 nM.

With `CC(C)S(=O)(=O)c1ccc(-c2cnc(N)c(-c3nnc(-c4ccc(CNCCF)cc4F)o3)n2)cc1` [IA-340, 3-[5-[2-fluoro-4-[(2-fluoroethylamino)methyl]phenyl]-1,3,4-oxadiazol-2-yl]-5-(4-isopropylsulfonylphenyl)pyrazin-2-amine], the Ki is at most 10 nM.

For the compound `Cc1ccc2nc(-c3nc(-c4ccc(S(C)(=O)=O)cc4)cnc3N)[nH]c2c1` [Compound I-117, 3-(6-methyl-1H-benzo[d]imidazol-2-yl)-5-(4-(methylsulfonyl)phenyl) pyrazin-2-amine], the Ki was 10 to 100 nM.

For the compound `Nc1ncc(-c2ccccc2-c2ccccc2)nc1-c1nnc(-c2ccccc2)o1` [IA-134, 3-(5-phenyl-1,3,4-oxadiazol-2-yl)-5-(2-phenylphenyl)pyrazin-2-amine], the Ki lay in the range of 100 to 5000 nM.

As to `CNCc1ccc(-c2nnc(-c3nc(-c4ccc(S(=O)(=O)CCN(C)C)cc4)cnc3N)o2)cc1` [IA-289, 5-[4-(2-dimethylaminoethylsulfonyl)phenyl]-3-[5-[4-(methylaminomethyl)phenyl]-1,3,4-oxadiazol-2-yl]pyrazin-2-amine], the inhibitory constant (Ki) is at most 10 nM.

Take `CC(C)(C)OC(=O)NCC[S+]([O-])c1ccccc1-c1cnc(N)c(-c2nnc(-c3ccccc3)o2)n1` (centres unmarked) [IA-164, tert-butyl N-[2-[2-[5-amino-6-(5-phenyl-1,3,4-oxadiazol-2-yl)pyrazin-2-yl]phenyl]sulfinylethyl]carbamate]: the Ki lay in the range of 100 to 5000 nM.

On to `CC(C)S(=O)(=O)c1ccc(-c2cnc(N)c(-c3nnc(N4CCCC(CN)C4)o3)n2)cc1` (centres unmarked) [IA-227, 3-[5-[3-(aminomethyl)-1-piperidyl]-1,3,4-oxadiazol-2-yl]-5-(4-isopropylsulfonylphenyl)pyrazin-2-amine], for which the Ki was 100 to 5000 nM.

Regarding `CC(C)[S+]([O-])c1ccccc1-c1cnc(N)c(-c2nnc(-c3ccccc3)o2)n1` (centres unmarked) [IA-136, 5-(2-(isopropylsulfinyl)phenyl)-3-(5-phenyl-1,3,4-oxadiazol-2-yl)pyrazin-2-amine], the inhibition constant (Ki) was 10 to 100 nM.

Consider `CS(=O)(=O)Nc1ccc(-c2cnc(N)c(C(=O)Nc3ccccc3)n2)cc1` [Compound I-5, 3-amino-6-(4-(methylsulfonamido)phenyl)-N-phenylpyrazine-2-carboxamide], for which the Ki lay within 10 to 100 nM.

Regarding `Nc1ncc(-c2ccc(C(=O)N3CCCNCC3)cc2)nc1C(=O)Nc1nc2ccccc2[nH]1` [Compound V-10], the Ki was at most 10 nM.

For the compound `Cn1c(NC(=O)c2nc(-c3ccc(C(=O)N4CCCNCC4)cc3)cnc2N)nc2ccccc21` [Compound V-25], the inhibitory constant (Ki) lay within 100 to 5000 nM.

As to `N#Cc1cccc(NC(=O)c2nc(-c3cccnc3)cnc2N)c1` [Compound I-87, 3-amino-N-(3-cyanophenyl)-6-(pyridin-3-yl)pyrazine-2-carboxamide], the inhibition constant Ki was 100 to 5000 nM.

`CN1CCN(c2ccc(-c3cnc(N)c(-c4nnc(-c5ccccc5)o4)n3)cn2)CC1` [IA-200, 5-(6-(4-methylpiperazin-1-yl)pyridin-3-yl)-3-(5-phenyl-1,3,4-oxadiazol-2-yl)pyrazin-2-amine]: the inhibition constant (Ki) was 100 to 5000 nM.

Take `CC(C)S(=O)(=O)c1ccc(-c2cnc(N)c(-c3nnc(NC4CCCNC4)o3)n2)cc1` (centres unmarked) [IA-199, 5-[3-amino-6-(4-isopropylsulfonylphenyl)pyrazin-2-yl]-N-(3-piperidyl)-1,3,4-oxadiazol-2-amine]: the inhibition constant Ki is 100 to 5000 nM.
